Measurements published in PubChem BioAssay AID2060889 (Molecular Pharmacology Branch, DTP, NCI, 2025).

Tested on: LG0567-F671-PDC complex spheroids viability
Assay: Anticancer human tumor LG0567-F671-PDC patient-derived lung adenocarcinoma cell line growth inhibition [RAS]
Conditions: for IC50: curve of first compound; for viability, T/C: stronger effect = lower value
Outline: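 Tumour cells grown as complex spheroids with HUVEC endothelial cells and mesenchymal stem cells, treated with RAS pathway inhibitor combinations. Each agent spans half-log steps from near clinical Cmax, or 10 microM where Cmax is unknown.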
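Also: spheroids exposed to compound for seven days before readout.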
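For IC50 in this document: luminescence signal used as a proxy for viable cells.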

Question: How did the IC50 (second compound 0.0316 µM) turn out when `CCN1CCN(Cc2ccc(Nc3ncc(F)c(-c4cc(F)c5nc(C)n(C(C)C)c5c4)n3)nc2)CC1` + C#Cc1c(F)ccc2cc(O)cc(-c3ncc4c(N5CC6CCC(C5)N6)nc(OCC56CCCN5CC(F)C6)nc4c3F)c12 was run?
Answer: > 1000 nM

Question: What about the IC50 (second compound 0.1 µM) of the same compound?
Answer: > 1000 nM

Question: What about the IC50 (second compound 0.316 µM) of the same compound?
Answer: 13.1 nM

Question: And the IC50 (second compound 1 µM)?
Answer: < 3.16 nM

Question: What about the IC50 (second compound 3.16 µM) of the same compound?
Answer: < 3.16 nM

Question: What about the IC50 (second compound 10 µM) of the same compound?
Answer: < 3.16 nM

Question: What about the viability, T/C (second compound 0.0316 µM, first compound 0.00316 µM) of the same compound?
Answer: 83.8%

Question: And the viability, T/C (second compound 0.0316 µM, first compound 0.01 µM)?
Answer: 77.1%

Question: And the viability, T/C (second compound 0.0316 µM, first compound 0.0316 µM)?
Answer: 72.8%

Question: What about the viability, T/C (second compound 0.0316 µM, first compound 0.1 µM) of the same compound?
Answer: 71.8%

Question: What about the viability, T/C (second compound 0.0316 µM, first compound 0.316 µM) of the same compound?
Answer: 61.1%

Question: What about the viability, T/C (second compound 0.0316 µM, first compound 1 µM) of the same compound?
Answer: 50.3%

Question: And the viability, T/C (second compound 0.1 µM, first compound 0.00316 µM)?
Answer: 75.9%

Question: What about the viability, T/C (second compound 0.1 µM, first compound 0.01 µM) of the same compound?
Answer: 75%

Question: What about the viability, T/C (second compound 0.1 µM, first compound 0.0316 µM) of the same compound?
Answer: 62.2%

Question: And the viability, T/C (second compound 0.1 µM, first compound 0.1 µM)?
Answer: 59.1%

Question: And the viability, T/C (second compound 0.1 µM, first compound 0.316 µM)?
Answer: 57.4%

Question: And the viability, T/C (second compound 0.1 µM, first compound 1 µM)?
Answer: 50.7%

Question: What about the viability, T/C (second compound 0.316 µM, first compound 0.00316 µM) of the same compound?
Answer: 54.4%

Question: What about the viability, T/C (second compound 0.316 µM, first compound 0.01 µM) of the same compound?
Answer: 52.6%

Question: What about the viability, T/C (second compound 0.316 µM, first compound 0.0316 µM) of the same compound?
Answer: 46.8%

Question: And the viability, T/C (second compound 0.316 µM, first compound 0.1 µM)?
Answer: 44.4%

Question: What about the viability, T/C (second compound 0.316 µM, first compound 0.316 µM) of the same compound?
Answer: 36%

Question: And the viability, T/C (second compound 0.316 µM, first compound 1 µM)?
Answer: 39.1%

Question: What about the viability, T/C (second compound 1 µM, first compound 0.00316 µM) of the same compound?
Answer: 37.8%

Question: What about the viability, T/C (second compound 1 µM, first compound 0.01 µM) of the same compound?
Answer: 34.5%

Question: What about the viability, T/C (second compound 1 µM, first compound 0.0316 µM) of the same compound?
Answer: 30.9%

Question: And the viability, T/C (second compound 1 µM, first compound 0.1 µM)?
Answer: 27.1%

Question: And the viability, T/C (second compound 1 µM, first compound 0.316 µM)?
Answer: 28.4%

Question: What about the viability, T/C (second compound 1 µM, first compound 1 µM) of the same compound?
Answer: 27.3%

Question: And the viability, T/C (second compound 3.16 µM, first compound 0.00316 µM)?
Answer: 20.7%

Question: What about the viability, T/C (second compound 3.16 µM, first compound 0.01 µM) of the same compound?
Answer: 18.2%

Question: And the viability, T/C (second compound 3.16 µM, first compound 0.0316 µM)?
Answer: 20%

Question: What about the viability, T/C (second compound 3.16 µM, first compound 0.1 µM) of the same compound?
Answer: 17%

Question: And the viability, T/C (second compound 3.16 µM, first compound 0.316 µM)?
Answer: 19.7%

Question: What about the viability, T/C (second compound 3.16 µM, first compound 1 µM) of the same compound?
Answer: 18.2%

Question: And the viability, T/C (second compound 10 µM, first compound 0.00316 µM)?
Answer: 11.4%

Question: What about the viability, T/C (second compound 10 µM, first compound 0.01 µM) of the same compound?
Answer: 10.8%

Question: What about the viability, T/C (second compound 10 µM, first compound 0.0316 µM) of the same compound?
Answer: 13.1%

Question: And the viability, T/C (second compound 10 µM, first compound 0.1 µM)?
Answer: 10.7%

Question: And the viability, T/C (second compound 10 µM, first compound 0.316 µM)?
Answer: 13.4%

Question: And the viability, T/C (second compound 10 µM, first compound 1 µM)?
Answer: 16.4%

Question: `CC(C)n1nc(-c2ccc3oc(N)nc3c2)c2c(N)ncnc21` was tested. Which viability, T/C (compound 0.000316 µM) did it give?
Answer: 90.9% [middle of 4 runs]

Question: And the viability, T/C (compound 0.001 µM)?
Answer: 88.4% [middle of 4 runs]

Question: And the viability, T/C (compound 0.00316 µM)?
Answer: 86.1% [middle of 4 runs]

Question: And the viability, T/C (compound 0.01 µM)?
Answer: 75.3% [middle of 4 runs]

Question: What about the viability, T/C (compound 0.0316 µM) of the same compound?
Answer: 56.1% [middle of 4 runs]

Question: Which IC50 (second compound 0.000949 µM) does the source give for `CC(Nc1ccc2c(c1)OCCn1cc(N3C(=O)OCC3C(F)F)nc1-2)C(N)=O` (centres undefined) + CCn1c(-c2cccnc2C(C)OC)c2c3cc(ccc31)N1CCOC(CC(NC(=O)C(C(C)C)N(C)C(=O)C3(F)CCN(C(=O)C#CC(C)(C)N(C)C)CC3)C(=O)N3CCCC(N3)C(=O)OCC(C)(C)C2)C1 here?
Answer: < 31.6 nM

Question: And the IC50 (second compound 0.003 µM)?
Answer: < 31.6 nM

Question: And the IC50 (second compound 0.00949 µM)?
Answer: < 31.6 nM

Question: What about the IC50 (second compound 0.03 µM) of the same compound?
Answer: < 31.6 nM

Question: And the IC50 (second compound 0.0949 µM)?
Answer: < 31.6 nM

Question: What about the IC50 (second compound 0.3 µM) of the same compound?
Answer: < 31.6 nM

Question: What about the viability, T/C (second compound 0.000949 µM, first compound 0.0316 µM) of the same compound?
Answer: 10.7%

Question: What about the viability, T/C (second compound 0.000949 µM, first compound 0.1 µM) of the same compound?
Answer: 8.72%

Question: What about the viability, T/C (second compound 0.000949 µM, first compound 0.316 µM) of the same compound?
Answer: 8.3%

Question: What about the viability, T/C (second compound 0.000949 µM, first compound 1 µM) of the same compound?
Answer: 7.21%

Question: What about the viability, T/C (second compound 0.000949 µM, first compound 3.16 µM) of the same compound?
Answer: 5.43%

Question: And the viability, T/C (second compound 0.000949 µM, first compound 10 µM)?
Answer: 4.31%

Question: What about the viability, T/C (second compound 0.003 µM, first compound 0.0316 µM) of the same compound?
Answer: 9.17%

Question: And the viability, T/C (second compound 0.003 µM, first compound 0.1 µM)?
Answer: 8.19%

Question: And the viability, T/C (second compound 0.003 µM, first compound 0.316 µM)?
Answer: 7.67%

Question: What about the viability, T/C (second compound 0.003 µM, first compound 1 µM) of the same compound?
Answer: 6.15%

Question: And the viability, T/C (second compound 0.003 µM, first compound 3.16 µM)?
Answer: 6.22%

Question: And the viability, T/C (second compound 0.003 µM, first compound 10 µM)?
Answer: 4.37%

Question: And the viability, T/C (second compound 0.00949 µM, first compound 0.0316 µM)?
Answer: 9.41%

Question: And the viability, T/C (second compound 0.00949 µM, first compound 0.1 µM)?
Answer: 8.93%

Question: What about the viability, T/C (second compound 0.00949 µM, first compound 0.316 µM) of the same compound?
Answer: 9.05%

Question: And the viability, T/C (second compound 0.00949 µM, first compound 1 µM)?
Answer: 6.09%

Question: And the viability, T/C (second compound 0.00949 µM, first compound 3.16 µM)?
Answer: 5.36%

Question: And the viability, T/C (second compound 0.00949 µM, first compound 10 µM)?
Answer: 4.24%

Question: And the viability, T/C (second compound 0.03 µM, first compound 0.0316 µM)?
Answer: 8.43%

Question: And the viability, T/C (second compound 0.03 µM, first compound 0.1 µM)?
Answer: 7.85%

Question: And the viability, T/C (second compound 0.03 µM, first compound 0.316 µM)?
Answer: 6.83%

Question: And the viability, T/C (second compound 0.03 µM, first compound 1 µM)?
Answer: 5.59%

Question: And the viability, T/C (second compound 0.03 µM, first compound 3.16 µM)?
Answer: 4.63%

Question: What about the viability, T/C (second compound 0.03 µM, first compound 10 µM) of the same compound?
Answer: 3.89%

Question: And the viability, T/C (second compound 0.0949 µM, first compound 0.0316 µM)?
Answer: 7.47%

Question: What about the viability, T/C (second compound 0.0949 µM, first compound 0.1 µM) of the same compound?
Answer: 6.11%

Question: And the viability, T/C (second compound 0.0949 µM, first compound 0.316 µM)?
Answer: 5.42%

Question: And the viability, T/C (second compound 0.0949 µM, first compound 1 µM)?
Answer: 4.93%

Question: And the viability, T/C (second compound 0.0949 µM, first compound 3.16 µM)?
Answer: 3.8%

Question: And the viability, T/C (second compound 0.0949 µM, first compound 10 µM)?
Answer: 2.62%

Question: What about the viability, T/C (second compound 0.3 µM, first compound 0.0316 µM) of the same compound?
Answer: 7.06%

Question: And the viability, T/C (second compound 0.3 µM, first compound 0.1 µM)?
Answer: 4.74%

Question: And the viability, T/C (second compound 0.3 µM, first compound 0.316 µM)?
Answer: 5.86%

Question: And the viability, T/C (second compound 0.3 µM, first compound 1 µM)?
Answer: 3.71%

Question: And the viability, T/C (second compound 0.3 µM, first compound 3.16 µM)?
Answer: 2.8%

Question: What about the viability, T/C (second compound 0.3 µM, first compound 10 µM) of the same compound?
Answer: 1.69%
